Patent publication US20060247305A1, “Chromen-4-one inhibitors of anti-apoptotic Bcl-2 family members and the uses thereof” (Regents of the University of Michigan, priority 2005, published 2006)
Like-named read-outs stand apart in the source and are kept apart here.

How the values were obtained:
[1] = target: T1, human Bcl-xL recombinant His-tagged protein (Homo sapiens, UniProt Q07817); experiment: Bcl-xL fluorescence polarization-based competitive binding assay (Flu-Bak peptide); details: for Ki: FP assay, 60 nM Bcl-xL, 5 nM Flu-Bak peptide, Ki calculated from IC50; for fold decrease of binding affinity to Bcl-xL: relative to the parent analogue (15d compared with 15b; 15j: removal of the big hydrophobic group)
T1 construct: without the C-terminus hydrophobic tail; His

[2] = target: Bcl-2 recombinant His-fused soluble protein (Homo sapiens, UniProt P10415); experiment: Bcl-2 fluorescence polarization-based competitive binding assay (Flu-Bid-21 peptide); details: for Ki: FP assay, 0.120 μM Bcl-2, 0.010 μM Flu-Bid-21, 4 hours incubation, Ki calculated from IC50, read-out: Binding Affinity Ki (μM) Bc1-2; for fold decrease of binding affinity to Bcl-2: relative to the parent analogue (15c, 15d compared with 15b; 15j: removal of the big hydrophobic group)
[3] = system: PC-3 prostate cancer cells; experiment: Cell growth inhibition, MTT, PC-3 prostate cancer cells; assay type: cell-based, human; details: for IC50: Homo sapiens, 120 h, 5 days incubation, MTT cell viability, read-out: Cellular Activity IC50 (μM) PC3
Description: (§1) To test the effect of compounds of the present invention on inhibition of cell growth in human cancer cells, the compounds were administered to two different cancer cell lines. PC-3 prostate cancer cells and 2LMP breast cancer cells were each seeded in 96-well plates with increasing concentrations of inhibitor compounds. The cells were then incubated at 37° C. with 5% CO2 for 5 days, followed by detection of cell viability with MTT. Untreated cells were used as 100% growth.

[4] = system: 2LMP breast cancer cells; experiment: Cell growth inhibition, MTT, 2LMP breast cancer cells; assay type: cell-based, human; details: for IC50: Homo sapiens, 120 h, 5 days incubation, MTT cell viability, read-out: Cellular Activity IC50 (μM) 2LMP
Description: as §1

[5] = read-out: Binding Affinity Ki (μM) Bc1-xL

T1 sequence (Q07817 1-209 limits assumed): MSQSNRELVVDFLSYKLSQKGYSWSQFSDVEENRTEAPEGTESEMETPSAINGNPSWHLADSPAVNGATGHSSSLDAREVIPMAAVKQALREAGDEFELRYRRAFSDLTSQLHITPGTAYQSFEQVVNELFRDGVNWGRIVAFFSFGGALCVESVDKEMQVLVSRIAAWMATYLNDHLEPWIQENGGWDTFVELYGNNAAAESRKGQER
Chain of Bcl-2 recombinant His-fused soluble protein (P10415 whole entry, the tested form may be a part): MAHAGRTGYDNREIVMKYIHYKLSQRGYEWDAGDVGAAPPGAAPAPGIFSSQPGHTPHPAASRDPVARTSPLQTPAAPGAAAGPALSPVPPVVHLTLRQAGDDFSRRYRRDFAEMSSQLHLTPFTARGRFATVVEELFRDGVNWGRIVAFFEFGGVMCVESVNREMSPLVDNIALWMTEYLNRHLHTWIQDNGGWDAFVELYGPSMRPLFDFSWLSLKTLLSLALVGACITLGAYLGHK

SMILES | Ki [1, 5] [µM] | fold decrease of binding affinity to Bcl-xL [1] | Ki [2] [µM] | fold decrease of binding affinity to Bcl-2 [2] | IC50 [3] [µM] | IC50 [4] [µM] | fold more potent than gossypol, cell growth inhibitory activity, PC3 ([3]; relative to gossypol) [fold] | fold more potent than gossypol, cell growth inhibitory activity, 2LMP ([4]; relative to gossypol) [fold] | Ki ([1]; Binding Affinity Ki (μM) Bc1-xL) [µM]
Cc1cc(=O)c2c(O)c(O)c(O)c(CC(C)C)c2o1 [Compound 15j, 5,6,7-Trihydroxy-8-isobutyl-2-methyl-chromen-4-one] | > 14 | more than 10 fold | 4.63 ± 0.16 | > 50 fold | 20.1 | > 30 |  |  | 
Cc1oc2c(CC(C)C)c(O)c(O)c(O)c2c(=O)c1-c1ccc2c(C)c(O)ccc2c1 [Compound 15a, 5,6,7-Trihydroxy-3-(6-hydroxy-5-methyl-naphthalen-2-yl)-8-isobutyl-2-methyl-chromen-4-one] | 1.78 ± 0.13 |  | 0.13 ± 0.01 |  | 3.09 | 1.44 |  |  | 
Cc1oc2c(CC(C)C)c(O)c(O)c(O)c2c(=O)c1-c1ccc2ccccc2c1 [Compound 15c, 5,6,7-Trihydroxy-8-isobutyl-2-methyl-3-naphthalen-2-yl-chromen-4-one] | 2.32 ± 0.26 |  | 0.39 ± 0.17 | about 2 fold | 3.62 | 2.08 |  |  | 
Cc1oc2c(CC(C)C)c(O)c(O)c(O)c2c(=O)c1-c1ccccc1 [Compound 15f, 5,6,7-Trihydroxy-8-isobutyl-2-methyl-3-phenyl-chromen-4-one] | 4.27 ± 0.84 |  | 0.79 ± 0.03 |  | 23.7 | 9.3 |  |  | 
Cc1oc2c(CC(C)C)c(O)c(O)c(O)c2c(=O)c1-c1ccc2c(C(C)C)c(O)ccc2c1 [Compound 2, 5,6,7-Trihydroxy-3-(6-hydroxy-5-isopropyl-naphthalen-2-yl)-8-isobutyl-2-methyl-chromen-4-one] | 1.49 |  | 0.088 |  | 1.82 | 1.54 | 3 to 4 | 3 to 4 | 
CCOc1ccc2cc(-c3c(C)oc4c(CC(C)C)c(OC)c(OC)c(OC)c4c3=O)ccc2c1 [Compound 15e, 3-(6-Ethoxy-naphthalen-2-yl)-8-isobutyl-5,6,7-trimethoxy-2-methyl-chromen-4-one] | > 14 |  | > 12 |  |  |  |  |  | 
COc1c(OC)c(OC)c2c(=O)c(-c3ccc4cc(O)ccc4c3)c(C)oc2c1CC(C)C [Compound 15d, 3-(6-Hydroxy-naphthalen-2-yl)-8-isobutyl-5,6,7-trimethoxy-2-methyl-chromen-4-one] | > 14 | more than 10 fold | 1.24 ± 0.13 | more than 10 fold | 20.6 | > 30 |  |  | 
Cc1cc2c(C(C)C)c(O)c(O)c(C=O)c2c(O)c1-c1c(C)cc2c(C(C)C)c(O)c(O)c(C=O)c2c1O [gossypol, reference compound] |  |  |  |  | 9.7 | 6 |  |  | 1.97 ± 0.39
Cc1oc2c(CC(C)C)c(O)c(O)c(O)c2c(=O)c1-c1ccc2cc(O)ccc2c1 [Compound 15b, 5,6,7-Trihydroxy-3-(6-hydroxy-naphthalen-2-yl)-8-isobutyl-2-methyl-chromen-4-one] | 1.71 ± 0.22 |  | 0.17 ± 0.02 |  | 5.07 | 2.55 |  |  | 
